Data set [1] has as its system Enterococcus faecalis ATCC 29212. In words: MIC against Enterococcus faecalis ATCC 29212. Format: cell-based. The conditions noted are these: ATCC29212. In a few lines:
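MIC measured by broth microdilution or agar dilution following CLSI guidelines (M7-A7 for aerobes, M11-A6 for anaerobes).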

The subject of data set [2] is Staphylococcus aureus. Kind of data set: mouse Staphylococcus aureus septicaemia model of infection, survival at day 7. The conditions noted are these: 1 and 6 hours after inoculation. Format: in vivo. On the procedure: Some of the Example compounds were also tested for activity in a mouse Staphylococcus aureus septicaemia model of infection.
Setting [3] is: Enterococcus faecalis ATCC 29212, read-out: MICs against Enterococcus faecalis, Activity.

Values after ≈ are worked out from the molar mass of the structure shown. Read-outs that look alike come from different tables or passages of the source.

In general, melting point refers to the temperature, or range, at which the solid turns liquid.

The compound `CCNC(=O)Nc1nc2cc(-c3cccnc3)cc(-c3cccc(C(F)(F)F)n3)c2s1` [Example 89, 1-Ethyl-3-[5-pyridin-3-yl-7-(6-trifluoromethyl-pyridin-2-yl)-benzothiazol-2-yl]-urea] returned a melting point of 256.7 °C. Also, in data set [1] (setting [3]), the MIC was under 0.25 µg/mL. In the same order, the values of `CCNC(=O)Nc1nc2cc(-c3cccnc3)cc(Br)c2s1` [Example 3, 1-(7-Bromo-5-pyridin-3-yl-benzothiazol-2-yl)-3-ethyl-urea] are 345 °C and 0.25 to 1 µg/mL (≈ 0.663 to 2.65 µM). On to `CCNC(=O)Nc1nc2cc(-c3cccnc3)cc(-c3ncccc3F)c2s1` [Example 91, 1-Ethyl-3-[7-(3-fluoro-pyridin-2-yl)-5-pyridin-3-yl-benzothiazol-2-yl]-urea], for which the Percent survival in data set [2] (2 × 30 mg/kg intraperitoneal) turned out to be 100. Besides, the MIC in data set [1] (setting [3]) was under 0.25 µg/mL. `CCNC(=O)Nc1nc2cc(-c3cccnc3)cc(-c3cccc(Cl)n3)c2s1` [Example 88, 1-[7-(6-Chloro-pyridin-2-yl)-5-pyridin-3-yl-benzothiazol-2-yl]-3-ethyl-urea] showed a melting point of 249.9 °C. In data set [1] (setting [3]), the MIC is under 0.25 µg/mL. Regarding `CCNC(=O)Nc1nc2cc(-c3cccnc3)cc(-c3cccc(OC)n3)c2s1` [Example 167, 1-Ethyl-3-[7-(6-methoxy-pyridin-2-yl)-5-pyridin-3-yl-benzothiazol-2-yl]-urea], the melting point was determined as 300.1 °C. Besides, the MIC in data set [1] (setting [3]) was under 0.25 µg/mL.

The compound `CCNC(=O)Nc1nc2cc(-c3cccnc3)cc(-c3ccc(C)cn3)c2s1` [Example 175, 1-Ethyl-3-[7-(5-methyl-pyridin-2-yl)-5-pyridin-3-yl-benzothiazol-2-yl]-urea] yielded a melting point of 231 °C. For the same compound, in data set [1] (setting [3]), the MIC is under 0.25 µg/mL. For the compound `CCNC(=O)Nc1nc2cc(-c3cccnc3)cc(-c3ccc[nH]3)c2s1` [Example 90, 1-Ethyl-3-[5-pyridin-3-yl-7-(1H-pyrrol-2-yl)-benzothiazol-2-yl]-urea], the melting point came out at 220 °C. Further, in data set [1] (setting [3]), the MIC was in the range of 0.25 to 1 µg/mL (≈ 0.688 to 2.75 µM). `CCNC(=O)Nc1nc2cc(-c3cccnc3)cc(-c3cccnc3)c2s1` [Example 4, 1-(5,7-Di-pyridin-3-yl-benzothiazol-2-yl)-3-ethyl-urea] yielded a Percent survival in data set [2] (2 × 100 mg/kg intraperitoneal) of 100. Besides, in data set [1] (setting [3]), the MIC was in the range of 0.25 to 1 µg/mL (≈ 0.666 to 2.66 µM).

Consider `CCNC(=O)Nc1nc2cc(-c3cnc4c(c3)NC(=O)CO4)cc(-c3ccccn3)c2s1` [Example 54, 1-Ethyl-3-[5-(2-oxo-2,3-dihydro-1H-pyrido[2,3-b][1,4]oxazin-7-yl)-7-pyridin-2-yl-benzothiazol-2-yl]-urea], for which the MIC in data set [1] (setting [3]) fell in the range of 0.25 to 1 µg/mL (≈ 0.56 to 2.24 µM). The same measure, in the same setting: in the case of `CCNC(=O)Nc1nc2cc(-c3cncc(C#N)c3)cc(-c3cccnc3)c2s1` [Example 24, 1-[5-(5-Cyano-pyridin-3-yl)-7-pyridin-3-yl-benzothiazol-2-yl]-3-ethyl-urea] it was 0.25 to 1 µg/mL (≈ 0.624 to 2.5 µM); in that of `CCNC(=O)Nc1nc2cc(-c3cccnc3)cc(-c3cc(OC)ccn3)c2s1` [Example 112, 1-Ethyl-3-[7-(4-methoxy-pyridin-2-yl)-5-pyridin-3-yl-benzothiazol-2-yl]-urea], under 0.25 µg/mL; in that of `CCNC(=O)Nc1nc2cc(-c3ccc(C)nc3)cc(-c3ccccn3)c2s1` [Example 41, 1-Ethyl-3-[5-(6-methyl-pyridin-3-yl)-7-pyridin-2-yl-benzothiazol-2-yl]-urea], under 0.25 µg/mL. Regarding `CCNC(=O)Nc1nc2cc(-c3ccc4nccn4c3)cc(-c3cccnc3)c2s1` [Example 22, 1-Ethyl-3-(5-imidazo[1,2-a]pyridin-6-yl-7-pyridin-3-yl-benzothiazol-2-yl)-urea], the MIC in data set [1] (setting [3]) fell in the range of 0.25 to 1 µg/mL (≈ 0.603 to 2.41 µM). Still for that read-out and setting: in the case of `CCNC(=O)Nc1nc2cc(-c3ccnc(OC)c3)cc(-c3ccccn3)c2s1` [Example 40, 1-Ethyl-3-[5-(2-methoxy-pyridin-4-yl)-7-pyridin-2-yl-benzothiazol-2-yl]-urea] it was 0.25 to 1 µg/mL (≈ 0.617 to 2.47 µM). For `CCNC(=O)Nc1nc2cc(-c3ccn(CCN(C)C)c(=O)c3)cc(-c3ccccn3)c2s1` [Example 72, 1-{5-[1-(2-Dimethylamino-ethyl)-2-oxo-1,2-dihydro-pyridin-4-yl]-7-pyridin-2-yl-benzothiazol-2-yl}-3-ethyl-urea], the MIC in data set [1] (setting [3]) was in the range of 0.25 to 1 µg/mL (≈ 0.54 to 2.16 µM). As for `CCNC(=O)Nc1nc2cc(-c3ccc(NC(C)=O)nc3)cc(-c3ccc(C#N)cn3)c2s1` [Example 136, N-{5-[7-(5-Cyano-pyridin-2-yl)-2-(3-ethyl-ureido)-benzothiazol-5-yl]-pyridin-2-yl}-acetamide], the MIC in data set [1] (setting [3]) was under 0.25 µg/mL. Take `CCNC(=O)Nc1nc2cc(-c3cnc(N)nc3)cc(-c3cnccn3)c2s1` [Example 139, 1-[5-(2-Amino-pyrimidin-5-yl)-7-pyrazin-2-yl-benzothiazol-2-yl]-3-ethyl-urea]: the MIC in data set [1] (setting [3]) was under 0.25 µg/mL.

`CCNC(=O)Nc1nc2cc(-c3cccnc3)cc(-c3ccc(OC)cc3)c2s1` [Example 84, 1-Ethyl-3-[7-(4-methoxy-phenyl)-5-pyridin-3-yl-benzothiazol-2-yl]-urea]: in data set [1] (setting [3]), the MIC lay in the range of 0.25 to 1 µg/mL (≈ 0.618 to 2.47 µM).

Regarding `CCNC(=O)Nc1nc2cc(-c3cccc(F)c3)cc(-c3cccnc3)c2s1` [Example 28, 1-Ethyl-3-[5-(3-fluoro-phenyl)-7-pyridin-3-yl-benzothiazol-2-yl]-urea], the MIC in data set [1] (setting [3]) is 0.25 to 1 µg/mL (≈ 0.637 to 2.55 µM). For the compound `CCNC(=O)Nc1nc2cc(-c3ccc(NC(C)=O)nc3)cc(-c3cccnc3)c2s1` [Example 20, N-{5-[2-(3-Ethyl-ureido)-7-pyridin-3-yl-benzothiazol-5-yl]-pyridin-2-yl}-acetamide], the MIC in data set [1] (setting [3]) was 0.25 to 1 µg/mL (≈ 0.578 to 2.31 µM).

For the compound `CCNC(=O)Nc1nc2cc(-c3ccc(NC(C)=O)nc3)cc(-c3ccc(NC(C)=O)nc3)c2s1` [Example 148, N-{5-[7-(6-Acetylamino-pyridin-3-yl)-2-(3-ethyl-ureido)-benzothiazol-5-yl]-pyridin-2-yl}-acetamide], the MIC in data set [1] (setting [3]) fell in the range of 0.25 to 1 µg/mL (≈ 0.511 to 2.04 µM). `CCOC(=O)Nc1nc2cc(-c3cccnc3)cc(-c3ccccn3)c2s1` [Example 174, (5-Pyridin-3-yl-7-pyridin-2-yl-benzothiazol-2-yl)-carbamic acid ethyl ester]: the melting point amounted to 235 °C. For the same compound, the MIC in data set [1] (setting [3]) is under 0.25 µg/mL. On to `CCNC(=O)Nc1nc2cc(-c3cccnc3)cc(-c3cncc(N)n3)c2s1` [Example 123, 1-[7-(6-Amino-pyrazin-2-yl)-5-pyridin-3-yl-benzothiazol-2-yl]-3-ethyl-urea], for which the MIC in data set [1] (setting [3]) is under 0.25 µg/mL. The same measure, in the same setting: in the case of `CCNC(=O)Nc1nc2cc(-c3ccc(CN4CCOCC4)cc3)cc(-c3cccnc3)c2s1` [Example 21, 1-Ethyl-3-[5-(4-morpholin-4-ylmethyl-phenyl)-7-pyridin-3-yl-benzothiazol-2-yl]-urea] it was 2 to 16 µg/mL (≈ 4.22 to 33.8 µM). For the compound `CCNC(=O)Nc1nc2cc(-c3cnc(N(C)C)nc3)cc(-c3cccnc3)c2s1` [Example 25, 1-[5-(2-Dimethylamino-pyrimidin-5-yl)-7-pyridin-3-yl-benzothiazol-2-yl]-3-ethyl-urea], in data set [1] (setting [3]), the MIC fell in the range of 0.25 to 1 µg/mL (≈ 0.596 to 2.38 µM). For the compound `CCNC(=O)Nc1nc2cc(-c3cnccn3)nc(-c3cnccn3)c2s1` [Example 181, 1-(4,6-di(pyrazin-2-yl)thiazolo[5,4-c]pyridin-2-yl)-3-ethylurea], the MIC in data set [1] (Enterococcus faecalis, ATCC 29212, Table 5, read-out: MIC against Enterococcus faecalis (Activity)) lay within 0.25 to 1 µg/mL (≈ 0.661 to 2.64 µM). Turning to `CCNC(=O)Nc1nc2cc(-c3cncc(N)n3)cc(-c3cccnc3)c2s1` [Example 45, 1-[5-(6-Amino-pyrazin-2-yl)-7-pyridin-3-yl-benzothiazol-2-yl]-3-ethyl-urea], the MIC in data set [1] (setting [3]) fell in the range of 0.25 to 1 µg/mL (≈ 0.639 to 2.55 µM).

In the case of `CCNC(=O)Nc1nc2cc(-c3cccnc3)cc(-c3cncn3C)c2s1` [Example 164, 1-Ethyl-3-[7-(3-methyl-3H-imidazol-4-yl)-5-pyridin-3-yl-benzothiazol-2-yl]-urea], in data set [1] (setting [3]), the MIC fell in the range of 2 to 16 µg/mL (≈ 5.28 to 42.3 µM). `CCNC(=O)Nc1nc2cc(-c3cccnc3)cc(-c3cc(CO)ccn3)c2s1` [Example 121, 1-Ethyl-3-[7-(4-hydroxymethyl-pyridin-2-yl)-5-pyridin-3-yl-benzothiazol-2-yl]-urea]: the MIC in data set [1] (setting [3]) is under 0.25 µg/mL.

The values are drawn from patent US8481544B2, “Antibacterial compositions” (Biota Europe Limited, priority 2006, dated 2013).
